According to PubChem BioAssay AID256 (DTP/NCI, 2004):
“And” between values parts separate entries of the source, which are not always exact repeats. Identical values can stand only once. Toxic doses and inconclusive results are not listed.

Test system: CD2F1 mice, L1210 leukemia ip, survival T/C
Assay: NCI In Vivo Anticancer Drug Screen. Data for tumor model L1210 Leukemia (intraperitoneal) in CD2F1 (CDF1) mice
Conditions: higher = longer survival
How it was run: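 Transplantable tumor in mice; compound-treated vs vehicle-treated groups. Read-out = treated/control ratio of the measured endpoint.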

[1] = endpoint: mean survival time, dose: 100.0 mg/kg/injection, schedule: Q01DX001 (ip), vehicle: saline with Tween-80
[2] = endpoint: mean survival time, dose: 200.0 mg/kg/injection, schedule: Q01DX001 (ip), vehicle: saline with Tween-80
[3] = endpoint: mean survival time, dose: 400.0 mg/kg/injection, schedule: Q01DX001 (ip), vehicle: saline with Tween-80
[4] = endpoint: mean survival time, dose: 100.0 mg/kg/injection, schedule: Q04DX002 (ip), vehicle: saline with Tween-80
[5] = endpoint: mean survival time, dose: 200.0 mg/kg/injection, schedule: Q04DX002 (ip), vehicle: saline with Tween-80
[6] = endpoint: mean survival time, dose: 400.0 mg/kg/injection, schedule: Q04DX002 (ip), vehicle: saline with Tween-80
[7] = endpoint: mean survival time, dose: 100.0 mg/kg/injection, schedule: Q01DX009 (ip), vehicle: saline with Tween-80
[8] = endpoint: mean survival time, dose: 100.0 mg/kg/injection, schedule: Q04DX003 (ip), vehicle: saline with Tween-80
[9] = endpoint: mean survival time, dose: 200.0 mg/kg/injection, schedule: Q01DX009 (ip), vehicle: saline with Tween-80
[10] = endpoint: mean survival time, dose: 200.0 mg/kg/injection, schedule: Q04DX003 (ip), vehicle: saline with Tween-80
[11] = endpoint: mean survival time, dose: 400.0 mg/kg/injection, schedule: Q01DX009 (ip), vehicle: saline with Tween-80
[12] = endpoint: mean survival time, dose: 400.0 mg/kg/injection, schedule: Q04DX003 (ip), vehicle: saline with Tween-80
[13] = endpoint: mean survival time, dose: 100.0 mg/kg/injection, schedule: Q01DX009 (ip), vehicle: saline

SMILES: Nc1ncn(C2CC(O)C(CO)O2)c(=O)n1 (centres undefined)
- T/C (endpoint: mean survival time, dose: 0.12 mg/kg/injection, schedule: Q01DX009 (ip), vehicle: saline): 160 % of control and 175 % of control
- T/C (endpoint: mean survival time, dose: 0.25 mg/kg/injection, schedule: Q01DX009 (ip), vehicle: Klucel (hydroxypropylcellulose) (HPC)): 195 % of control
- T/C (endpoint: mean survival time, dose: 0.25 mg/kg/injection, schedule: Q01DX009 (ip), vehicle: saline): 193 % of control and 221 % of control
- T/C (endpoint: mean survival time, dose: 0.5 mg/kg/injection, schedule: Q01DX009 (ip), vehicle: Klucel (hydroxypropylcellulose) (HPC)): 219 % of control
- T/C (endpoint: mean survival time, dose: 0.5 mg/kg/injection, schedule: Q01DX009 (ip), vehicle: saline): 229 % of control and 258 % of control
- T/C (endpoint: mean survival time, dose: 1.0 mg/kg/injection, schedule: Q01DX009 (ip), vehicle: Klucel (hydroxypropylcellulose) (HPC)): 227 % of control
- T/C (endpoint: mean survival time, dose: 1.0 mg/kg/injection, schedule: Q01DX009 (ip), vehicle: saline): 258 % of control and 296 % of control
- T/C (endpoint: mean survival time, dose: 4.0 mg/kg/injection, schedule: Q01DX009 (ip), vehicle: Klucel (hydroxypropylcellulose) (HPC)): 113 % of control
- T/C (endpoint: mean survival time, dose: 4.0 mg/kg/injection, schedule: Q01DX009 (ip), vehicle: saline): 121 % of control
- T/C (endpoint: mean survival time, dose: 8.0 mg/kg/injection, schedule: Q01DX009 (ip), vehicle: Klucel (hydroxypropylcellulose) (HPC)): 98 % of control
- T/C (endpoint: median survival time, dose: 0.25 mg/kg/injection, schedule: Q01DX009 (ip), vehicle: saline): 211 % of control
- T/C (endpoint: median survival time, dose: 0.5 mg/kg/injection, schedule: Q01DX009 (ip), vehicle: saline): 247 % of control
- T/C (endpoint: median survival time, dose: 1.0 mg/kg/injection, schedule: Q01DX009 (ip), vehicle: saline): 297 % of control
- T/C (endpoint: median survival time, dose: 8.0 mg/kg/injection, schedule: Q01DX009 (ip), vehicle: saline): 117 % of control

SMILES: CC(C)C(O)C(C)(C)c1nc2ccccc2[nH]1 (centres undefined)
- T/C [1]: 100 % of control
- T/C [2]: 94 % of control

SMILES: CC(C(=O)c1ccccc1)C(N[N+](C)(C)C)c1ccccc1 (centres undefined)
- T/C (endpoint: mean survival time, dose: 25.0 mg/kg/injection, schedule: Q04DX003 (ip), vehicle: saline with Tween-80): 96 % of control

SMILES: FC(F)(F)Cc1ccccc1
- T/C [1]: 103 % of control
- T/C [2]: 108 % of control
- T/C [3]: 105 % of control

SMILES: CSc1nc(C)cc(=O)[nH]1
- T/C [4]: 94 % of control
- T/C [5]: 97 % of control
- T/C [6]: 90 % of control

SMILES: CC(NC=O)(C(=O)O)c1ccccc1 (centres undefined)
- T/C (endpoint: mean survival time, dose: 50.0 mg/kg/injection, schedule: Q01DX001 (ip), vehicle: other): 102 % of control
- T/C (endpoint: mean survival time, dose: 100.0 mg/kg/injection, schedule: Q01DX001 (ip), vehicle: other): 97 % of control and 90 % of control
- T/C (endpoint: mean survival time, dose: 200.0 mg/kg/injection, schedule: Q01DX001 (ip), vehicle: other): 100 % of control and 102 % of control
- T/C (endpoint: mean survival time, dose: 400.0 mg/kg/injection, schedule: Q01DX001 (ip), vehicle: other): 97 % of control

SMILES: CCCCCCCCCCCCCCCC[n+]1ccccc1
- T/C (endpoint: mean survival time, dose: 0.78 mg/kg/injection, schedule: Q01DX009 (ip), vehicle: saline): 112 % of control
- T/C (endpoint: mean survival time, dose: 1.56 mg/kg/injection, schedule: Q01DX009 (ip), vehicle: saline): 120 % of control
- T/C (endpoint: mean survival time, dose: 3.13 mg/kg/injection, schedule: Q01DX009 (ip), vehicle: saline): 120 % of control

SMILES: Cc1c(C)c(NC(=O)/C=C/C(=O)O)c(C)c(C)c1NC(=O)/C=C\C(=O)O
- T/C (endpoint: mean survival time, dose: 100.0 mg/kg/injection, schedule: Q01DX001 (ip), vehicle: Klucel (hydroxypropylcellulose) (HPC)): 101 % of control
- T/C (endpoint: mean survival time, dose: 200.0 mg/kg/injection, schedule: Q01DX001 (ip), vehicle: Klucel (hydroxypropylcellulose) (HPC)): 96 % of control
- T/C (endpoint: mean survival time, dose: 400.0 mg/kg/injection, schedule: Q01DX001 (ip), vehicle: Klucel (hydroxypropylcellulose) (HPC)): 98 % of control

SMILES: Cc1c([N+](=O)[O-])cc(Cl)n[n+]1[O-]
- T/C (endpoint: mean survival time, dose: 3.13 mg/kg/injection, schedule: Q04DX002 (ip), vehicle: saline with Tween-80): 101 % of control
- T/C (endpoint: mean survival time, dose: 6.25 mg/kg/injection, schedule: Q04DX002 (ip), vehicle: saline with Tween-80): 97 % of control
- T/C (endpoint: mean survival time, dose: 12.5 mg/kg/injection, schedule: Q04DX002 (ip), vehicle: saline with Tween-80): 96 % of control

SMILES: COC1C(O)C(C)OC(O[C@@H]2C[C@H]3CC[C@@H]4[C@H](CC[C@]5(C)[C@@H](C6=CC(=O)OC6)CC[C@]45O)[C@@]3(C)[C@H](O)C2)C1O (some centres undefined)
- T/C (endpoint: mean survival time, dose: 75.0 mg/kg/injection, schedule: Q01DX001 (ip), vehicle: other): 90 % of control
- T/C (endpoint: mean survival time, dose: 150.0 mg/kg/injection, schedule: Q01DX001 (ip), vehicle: other): 91 % of control

SMILES: O=C(CCl)C(c1ccc([N+](=O)[O-])cc1)c1ccc([N+](=O)[O-])cc1
- T/C [7]: 98 % of control
- T/C [8]: 100 % of control
- T/C [9]: 98 % of control
- T/C [10]: 103 % of control
- T/C [11]: 98 % of control
- T/C [12]: 108 % of control

SMILES: CN(C)c1ccc(CN2CCCN(Cc3ccc(N(C)C)cc3)C2c2cc(Cl)ccc2O)cc1
- T/C [7]: 86 % of control
- T/C [8]: 98 % of control
- T/C [9]: 93 % of control
- T/C [10]: 92 % of control
- T/C [11]: 86 % of control
- T/C [12]: 92 % of control

SMILES: O=[N+]([O-])c1ccc(C[N+]23CCN(CC2)CC3)cc1
- T/C [1]: 100 % of control
- T/C [2]: 106 % of control

SMILES: NC1(CO)COC(c2ccccc2)OC1 (centres undefined)
- T/C (endpoint: mean survival time, dose: 25.0 mg/kg/injection, schedule: Q01DX009 (ip), vehicle: saline): 93 % of control
- T/C (endpoint: mean survival time, dose: 50.0 mg/kg/injection, schedule: Q01DX009 (ip), vehicle: saline): 96 % of control
- T/C [13]: 96 % of control

SMILES: CCN(CC)C(=S)[S][Pb]([CH2]C)([CH2]C)[CH2]C
- T/C (endpoint: mean survival time, dose: 6.25 mg/kg/injection, schedule: Q01DX009 (ip), vehicle: saline with Tween-80): 96 % of control

SMILES: OCc1ccc(Cl)cc1Cl
- T/C [7]: 93 % of control
- T/C [9]: 92 % of control

SMILES: COc1ccc(NC(=O)Oc2ccc3ccccc3c2)cc1
- T/C [4]: 87 % of control
- T/C [5]: 93 % of control
- T/C [6]: 93 % of control

SMILES: CCCCCCCCCCCCCCCCOc1ccccc1/C=N/O
- T/C (endpoint: mean survival time, dose: 100.0 mg/kg/injection, schedule: Q01DX009 (ip), vehicle: Klucel (hydroxypropylcellulose) (HPC)): 87 % of control
- T/C (endpoint: mean survival time, dose: 200.0 mg/kg/injection, schedule: Q01DX009 (ip), vehicle: Klucel (hydroxypropylcellulose) (HPC)): 89 % of control

SMILES: Cc1cccc(C)c1NC1=CC(=O)C(=O)c2ccccc21
- T/C (endpoint: mean survival time, dose: 75.0 mg/kg/injection, schedule: Q01DX001 (ip), vehicle: saline): 95 % of control
- T/C (endpoint: mean survival time, dose: 150.0 mg/kg/injection, schedule: Q01DX001 (ip), vehicle: saline): 89 % of control
- T/C (endpoint: mean survival time, dose: 300.0 mg/kg/injection, schedule: Q01DX001 (ip), vehicle: saline): 97 % of control

SMILES: CCOC(=O)Nc1cc(F)cc(C(F)(F)F)c1F
- T/C [7]: 97 % of control
- T/C [9]: 97 % of control
- T/C [11]: 109 % of control

SMILES: CSCC(N)C(=O)O (centres undefined)
- T/C [13]: 103 % of control
- T/C (endpoint: mean survival time, dose: 200.0 mg/kg/injection, schedule: Q01DX009 (ip), vehicle: saline): 103 % of control
- T/C (endpoint: mean survival time, dose: 400.0 mg/kg/injection, schedule: Q01DX009 (ip), vehicle: saline): 97 % of control

SMILES: C=CCCCCCCCCC(=O)N1CCOCC1
- T/C (endpoint: mean survival time, dose: 100.0 mg/kg/injection, schedule: Q04DX002 (ip), vehicle: saline): 97 % of control

SMILES: NC(=S)Nc1ccc(C23CCC(CC2)CC3)cc1
- T/C (endpoint: mean survival time, dose: 50.0 mg/kg/injection, schedule: Q01DX009 (ip), vehicle: saline with Tween-80): 101 % of control
- T/C [7]: 101 % of control
- T/C [9]: 109 % of control

SMILES: CC(=O)Oc1cc2c(=O)oc3cc(OC(C)=O)c(=O)oc3c2c(OC(C)=O)c1OC(C)=O
- T/C (endpoint: mean survival time, dose: 100.0 mg/kg/injection, schedule: Q01DX001 (ip), vehicle: saline): 98 % of control
- T/C (endpoint: mean survival time, dose: 200.0 mg/kg/injection, schedule: Q01DX001 (ip), vehicle: saline): 101 % of control
- T/C (endpoint: mean survival time, dose: 400.0 mg/kg/injection, schedule: Q01DX001 (ip), vehicle: saline): 110 % of control

SMILES: Cc1cc(=O)[nH]c2cc(Br)ccc12
- T/C [1]: 91 % of control
- T/C [2]: 89 % of control
- T/C [3]: 87 % of control

SMILES: CN(C)S(=O)(=O)C=C(c1ccccc1)c1ccccc1
- T/C [8]: 107 % of control
- T/C [10]: 96 % of control
- T/C [12]: 94 % of control

SMILES: CC[C@H](CC[C@@H](C)[C@H]1CC[C@H]2[C@@H]3CC=C4C[C@@H](O)CC[C@]4(C)[C@H]3CC[C@]12C)C(C)C
- T/C [7]: 89 % of control
- T/C [9]: 101 % of control
- T/C [11]: 95 % of control

SMILES: NC(CCSCc1ccc(N(CCCl)CCCl)cc1)C(=O)O (centres undefined)
- T/C (endpoint: mean survival time, dose: 14.0 mg/kg/injection, schedule: Q01DX009 (ip), vehicle: carboxymethylcellulose (CMC)): 152 % of control
